Like-named read-outs stand apart in the source and are kept apart here.
How the values were obtained:
[1] = target: HIV reverse transcriptase WT (Human immunodeficiency virus type 1 group M subtype B, UniProt P03366); assay: Enzyme assay, reverse transcriptase WT; format: biochemical, HIV-1
Text: (§1) As used herein, “reverse transcriptase” or “RT” refers to an enzyme having a non-nucleoside inhibitory binding site similar to that of HIV-1 RT, and to which ligands, which bind the composite binding pocket of the compounds of the present invention, also will bind. One measure of RT activity is viral replication. A measure of HIV-1 viral replication is the automated assay that utilizes MTT, as described earlier in this specification. Another measure is the p24 core antigen enzyme immunoassay, such as, for example, the assay commercially available from Coulter Corporation/Immunotech, Inc.® (Westbrook, Mich.). Another means for measuring RT activity is by assaying recombinant HIV-1 reverse transcriptase activity, such as, for example, by using the Quan-T-RT™ assay system commercially available from Amersham® (Arlington Heights, Ill.) and as described by Bosworth et al., Nature, 1989, 341:167-168.
(§2) The 3-phosphoindoles can be assessed for their ability to inhibit reverse transcriptase activity in vitro according to standard screening methods.

[2] = target: HIV reverse transcriptase Y181C (Human immunodeficiency virus type 1 group M subtype B, UniProt P03366, Y780C); assay: Enzyme assay, reverse transcriptase Y181C; format: biochemical, HIV-1
Text: as §1, §2

[3] = target: HIV reverse transcriptase K103N (Human immunodeficiency virus type 1 group M subtype B, UniProt P03366, K702N); assay: Enzyme assay, reverse transcriptase K103N; format: biochemical, HIV-1
Text: as §1, §2

[4] = target: HIV reverse transcriptase K103N/Y181C (Human immunodeficiency virus type 1 group M subtype B, UniProt P03366, K702N/Y780C); assay: Enzyme assay, reverse transcriptase K103N/Y181C; format: biochemical, HIV-1
Text: as §1, §2

[5] = test system: HIV BH-10 WT; assay: Cell-based assay using BH-10 cells, wild type
[6] = test system: HIV mutant strain Y181C; assay: Cell-based assay using BH-10 cells, Y181C mutant
Description: (§3) In a typical embodiment, the NNRTIs display an EC50 in a mutant HIV strain of less than approximately 5, 2.5, 1 or 0.1 μM concentration. The degree of cross-resistance against a drug resistant strain of HIV is measured by assessing the EC50 of the desired oxo-pyrimidine compound in the target mutated, i.e., drug resistant, virus.
(§4) The degree of cross-resistance against a drug resistant strain of HIV can easily be measured by assessing the EC50 of the desired indole in the target mutated i.e., drug resistant, virus.

[7] = test system: HIV mutant strain K103N/Y181C; assay: Cell-based assay using BH-10 cells, K103N/Y181C mutant
Description: as §3, §4

[8] = Human immunodeficiency virus 1, read-out: EC50 WT///B, BH-10 cells, wild type
[9] = Human immunodeficiency virus 1, read-out: EC50 Y181C, BH-10 cells, Y181C mutant
[10] = Human immunodeficiency virus 1, read-out: EC50 K103N/Y181C, BH-10 cells, K103N/Y181C mutant

| Structure (SMILES) | IC50 [1] | IC50 [2] | IC50 [3] | IC50 [4] | EC50 [5, 8] | EC50 [6, 9] | EC50 [7, 10] | EC50 ([5]; BH-10 cells, wild type, read-out: EC50 WT///B) | EC50 ([6]; BH-10 cells, Y181C mutant, read-out: EC50 Y181C) | EC50 ([7]; BH-10 cells, K103N/Y181C mutant, read-out: EC50 K103N/Y181C) |
| --- | --- | --- | --- | --- | --- | --- | --- | --- | --- | --- |
| CCOP(=O)(c1ccccc1)c1c(C(N)=O)[nH]c2ccc(Cl)cc12 (stereo not shown) [Compound 6a] | 722 nM | 1970 nM | 1630 nM | > 5000 nM | 1.2 nM | 13.7 nM | 16.4 nM | – | – | – |
| COP(=O)(c1ccccc1)c1c(C(N)=O)[nH]c2ccc(Cl)cc12 (stereo not shown) [Compound 7ah] | 309 nM | 349 nM | 389 nM | 6750 nM | 0.4 nM | 4.9 nM | 3.4 nM | – | – | – |
| CCOP(=O)(c1cc(C)cc(C)c1)c1c(C(=O)NCc2ccncc2)[nH]c2ccc(Cl)cc12 (stereo not shown) [Compound 9a] | 3410 nM | 4490 nM | 3360 nM | > 5000 nM | 11 nM | 57.7 nM | 8 nM | – | – | – |
| CCOP(=O)(c1ccc(F)cc1)c1c(C(N)=O)[nH]c2ccc(Cl)cc12 (stereo not shown) [Compound 6c] | 3620 nM | > 5000 nM | > 5000 nM | > 5000 nM | 34.5 nM | > 1250 nM | > 1250 nM | – | – | – |
| COP(=O)(c1ccccc1)c1c(C(=O)NCc2ccncc2)[nH]c2ccc(Cl)cc12 (stereo not shown) [Compound 18ar] | 156 nM | 489 nM | 930 nM | 1660 nM | 1 nM | 5.6 nM | 3.9 nM | – | – | – |
| NC(=O)c1[nH]c2ccc(Cl)cc2c1P(=O)(c1ccccc1)c1ccccc1 [Compound 27a] | > 5000 nM | > 5000 nM | > 5000 nM | > 5000 nM | > 1250 nM | > 1250 nM | > 1250 nM | – | – | – |
| COP(=O)(c1ccccc1)c1c(C(N)=O)[nH]c2ccccc12 (stereo not shown) [Compound 7ai] | 393 nM | 5610 nM | 6590 nM | > 5000 nM | 1 nM | 1110 nM | 706 nM | – | – | – |
| COP(=O)(c1cccc(COCc2ccccc2)c1)c1c(C(N)=O)[nH]c2ccc(Cl)cc12 (stereo not shown) [Compound 7ap] | – | – | – | – | 153 nM | 1140 nM | > 1250 nM | – | – | – |
| COP(=O)(c1ccccc1Cl)c1c(C(N)=O)[nH]c2ccc(Cl)cc12 (stereo not shown) [Compound 7ao] | – | – | – | – | 0.4 nM | 2 nM | 1.4 nM | – | – | – |
| CCOP(=O)(c1cc(F)cc(F)c1)c1c(C(N)=O)[nH]c2ccc(Cl)cc12 (stereo not shown) [Compound 6ac] | 726 nM | 3500 nM | 12700 nM | > 5000 nM | 3.7 nM | 986 nM | > 1250 nM | – | – | – |
| CCOP(=O)(c1ccccc1CC)c1c(C(N)=O)[nH]c2ccc(Cl)cc12 (stereo not shown) [Compound 6ah] | – | – | – | – | 16.2 nM | 211 nM | 307 nM | – | – | – |
| COP(=O)(c1ccccc1)c1c(C(=O)NCc2ccccc2F)[nH]c2ccc(Cl)cc12 (stereo not shown) [Compound 18aab] | – | – | – | – | 3.8 nM | 33.5 nM | 10.2 nM | – | – | – |
| COP(=O)(c1cc(C)cc(C)c1)c1c(C(=O)NCc2cnc[n+]([O-])c2)[nH]c2ccc(Cl)cc12 (stereo not shown) [Compound 22g] | – | – | – | – | 2.1 nM | 10.7 nM | 3 nM | – | – | – |
| CCOP(=O)(c1ccccc1F)c1c(C(N)=O)[nH]c2ccc(Cl)cc12 (stereo not shown) [Compound 6ad] | 433 nM | 4350 nM | 3290 nM | > 5000 nM | 0.9 nM | 58.3 nM | 17 nM | – | – | – |
| NC(=O)c1[nH]c2ccc(Cl)cc2c1P(=O)(O)c1ccccc1 [Compound 60a] | > 5000 nM | > 5000 nM | > 5000 nM | > 5000 nM | > 1250 nM | > 1250 nM | > 1250 nM | – | – | – |
| COP(=O)(c1ccccc1)c1c(C(=O)NCc2cncn2C)[nH]c2ccc(Cl)cc12 (stereo not shown) [Compound 18as] | – | – | – | – | 0.3 nM | 9.9 nM | 0.6 nM | – | – | – |
| COP(=O)(c1cccc(C(C)C)c1)c1c(C(=O)NCc2ccncc2)[nH]c2ccc(Cl)cc12 (stereo not shown) [Compound 18aq] | – | – | – | – | 12 nM | 31.7 nM | 18.6 nM | – | – | – |
| CN(C)P(=O)(c1ccccc1)c1c(C(N)=O)[nH]c2ccc(Cl)cc12 (stereo not shown) [Compound 31a] | 1400 nM | > 5000 nM | > 5000 nM | > 5000 nM | 13.9 nM | 467 nM | > 1250 nM | – | – | – |
| COP(=O)(c1cc(C)cc(C)c1)c1c(C(N)=O)[nH]c2ccc(Cl)cc12 (stereo not shown) [Compound 7a] | – | – | – | – | 0.2 nM | 1.2 nM | 1 nM | – | – | – |
| CCOP(=O)(c1cc(C)cc(C)c1)c1c(C(N)=O)[nH]c2ccc(Cl)cc12 (stereo not shown) [Compound 6b] | 1640 nM | 4310 nM | 2610 nM | > 5000 nM | 3 nM | 28 nM | 51.7 nM | – | – | – |
| COP(=O)(c1cc(C)cc(C)c1)c1c(C(=O)NCc2ccc[n+]([O-])c2)[nH]c2ccc(Cl)c(F)c12 (stereo not shown) [Compound 22j] | – | – | – | – | – | – | – | 6.8 nM | 9.9 nM | 6 nM |
| CP(=O)(c1ccccc1)c1c(C(N)=O)[nH]c2ccc(Cl)cc12 (stereo not shown) [Compound 29a] | 233 nM | 2520 nM | > 5000 nM | > 5000 nM | 0.8 nM | 266 nM | 1380 nM | – | – | – |
| COP(=O)(c1cc(F)cc(C(F)(F)F)c1)c1c(C(N)=O)[nH]c2ccc(Cl)cc12 (stereo not shown) [Compound 7q] | – | – | – | – | 1.1 nM | 16.6 nM | 2.9 nM | – | – | – |
| COP(=O)(c1cc(C)cc(C)c1)c1c(C(=O)NCc2cc[n+]([O-])cc2)[nH]c2ccc(Cl)c(F)c12 (stereo not shown) [Compound 22m] | – | – | – | – | 2.1 nM | 2.6 nM | 1.9 nM | – | – | – |
| COP(=O)(c1cccc(C#N)c1)c1c(C(N)=O)[nH]c2ccc(Cl)cc12 (stereo not shown) [Compound 7f] | – | – | – | – | 0.9 nM | 10.5 nM | 15.3 nM | – | – | – |
| COP(=O)(c1cc(C)cc(C)c1)c1c(C(=O)NCc2ccccc2F)[nH]c2ccc(Cl)cc12 (stereo not shown) [Compound 18az] | – | – | – | – | 3 nM | 16.7 nM | 8.5 nM | – | – | – |
| COP(=O)(CC=C(C)C)c1c(C(N)=O)[nH]c2ccc(Cl)cc12 (stereo not shown) [Compound 57b] | – | – | – | – | 0.8 nM | 13.1 nM | 174 nM | – | – | – |
| COP(=O)(c1cc(C)cc(C)c1)c1c(C(=O)NCc2cncn2C)[nH]c2ccc(Cl)cc12 (stereo not shown) [Compound 18aaa] | – | – | – | – | 3.2 nM | 6.4 nM | 3.3 nM | – | – | – |
| COP(=O)(c1cc(C)cc(C)c1)c1c(C(=O)NCc2cccnc2)[nH]c2ccc(Cl)cc12 (stereo not shown) [Compound 18f] | – | – | – | – | 2.3 nM | 5.9 nM | 3.4 nM | – | – | – |
| COP(=O)(c1cc(C)cc(C)c1)c1c(C(=O)NCc2cc[n+](C)cc2)[nH]c2ccc(Cl)cc12 (stereo not shown) [Compound 22l] | – | – | – | – | 6.1 nM | 269 nM | 77.4 nM | – | – | – |
